Source: patent US12285503B2, “Methods and reagents for tumor targeting with greater efficacy and less toxicity” (CORNELL UNIVERSITY, priority 2017, dated 2025)

What was measured:
[1] = molecular target: T1, PSMA (Homo sapiens, UniProt Q04609); conditions: cited from earlier work
T1 construct: when treating prostate cancer patients with PSMA-617-Ac^225 has been reported; host or cells: prostate cancer patients (Kratochwil et al., J. Nucl. Med. 2017)

[2] = limit to the kidney and salivary glands; cited from earlier work
[3] = molecular target: T1, PSMA; experiment: Normal tissue bio-distribution / organ radioactive dose of PSMA-targeting agents in patients; type: in vivo
Description: While the two different classes of agents both bind to their target (e.g., PSMA, SSTR-2, CD20, etc)-expressing tumor cells, the normal tissues that get targeted differs between classes of agents. As an example, PSMA is expressed not only by prostate cancer cells but also by the normal parotid and other salivary glands, lacrimal glands, kidney and small bowel (See FIGS. 4-7). […] With both types of agents, the tumor sites are targeted, but the normal tissues that are targeted are different and virtually mutually exclusive.

[4] = system: LNCaP cells; experiment: Internalization assay, LNCaP cells; type: cell-based; conditions: 1 hour at 37° C.
Description: (§1) Internalization assay. LNCaP and CWR22Rv1 cells were trypsinized and aliquoted into tubes at 1×10^6 cells per tube. Cells were washed once with RPMI (no FBS). ^177Lu-J591 (150,000 CPM) in […] RPMI (no FBS) per tube and/or ^177Lu-PSMA-617 (110,000 CPM) was added in […] RPMI (no FBS) per tube. The samples were incubated for 1 hour at 37° C., with the cells re-suspended every 15 minutes. After incubation, the cells were washed twice with 0.1% BSA/PBS to remove unbound/un-internalized binding agents. Samples were counted.

[5] = system: CWR22Rv1 cells; experiment: Internalization assay, CWR22Rv1 cells; type: cell-based; conditions: 1 hour at 37° C.
Description: as §1

[6] = molecular target: T1, PSMA; experiment: PSA declines as indication of anti-tumor activity in patients; type: in vivo
Description: J591-Lu^177 begins to induce PSA declines, as an indication of anti-tumor activity, at an administered ^177Lu dose of ≤30 mCi/m^2 given twice at a 2 week interval. As the dose is increased to 140, 160 and 180 mCi [total], the magnitude of the PSA/anti-tumor response gets progressively greater.
PSMA-617/ligand-Lu^177 begins to induce PSA declines at an administered cumulative ^177Lu dose of 300 mCi (11.1 Gbq) given in a 2-dose regimen at a 2 week interval (150 mCi×2). As the dose is increased to 2-dose totals of 400-500 mCi (14.8-18.5 GBq), the magnitude of the PSA/anti-tumor response gets progressively greater.

T1 sequence (Q04609 whole entry): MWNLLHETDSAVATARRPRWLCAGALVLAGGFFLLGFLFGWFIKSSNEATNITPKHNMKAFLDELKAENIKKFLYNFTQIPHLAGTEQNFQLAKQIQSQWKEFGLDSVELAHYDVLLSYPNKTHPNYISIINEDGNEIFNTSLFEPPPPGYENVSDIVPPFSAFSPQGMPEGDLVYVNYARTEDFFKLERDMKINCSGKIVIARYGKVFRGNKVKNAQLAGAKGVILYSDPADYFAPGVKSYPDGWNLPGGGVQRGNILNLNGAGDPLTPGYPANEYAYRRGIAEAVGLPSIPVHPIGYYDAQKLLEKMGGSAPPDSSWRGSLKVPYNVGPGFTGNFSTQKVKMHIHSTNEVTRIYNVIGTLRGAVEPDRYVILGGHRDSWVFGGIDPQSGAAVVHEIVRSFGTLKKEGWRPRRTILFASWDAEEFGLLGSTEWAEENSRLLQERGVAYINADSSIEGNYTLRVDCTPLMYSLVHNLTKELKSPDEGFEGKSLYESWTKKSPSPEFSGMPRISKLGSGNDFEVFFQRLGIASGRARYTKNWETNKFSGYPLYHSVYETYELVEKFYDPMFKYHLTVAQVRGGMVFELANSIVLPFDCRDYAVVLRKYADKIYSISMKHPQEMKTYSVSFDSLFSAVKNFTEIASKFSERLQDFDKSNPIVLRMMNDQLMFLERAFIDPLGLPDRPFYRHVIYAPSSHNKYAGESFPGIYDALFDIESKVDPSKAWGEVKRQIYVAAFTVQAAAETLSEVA

| Compound | tolerable dose ([1]; human, in vivo) [Kbq/kg] | treatment activity above which severe xerostomia becomes the dose-limiting toxicity ([1]; human, in vivo) | anti-tumor response ([1]; treatment activity 50 kBq/kg, patients with high tumor burden) | toxicity ([1]; treatment activity 50 kBq/kg) | maximum safe cumulative dose [2] | dose to the bone marrow / thrombocytopenia [3] | 177Lu internalization [4] | 177Lu internalization [5] | administered cumulative 177Lu dose at which PSA declines begin ([6]; 2-dose regimen at a 2 week interval) [Gbq] | administered cumulative 177Lu dose at which PSA declines begin ([6]; 2-dose regimen at a 2 week interval (150 mCi×2)) [mCi] |
| --- | --- | --- | --- | --- | --- | --- | --- | --- | --- | --- |
| O=C([O-])CC[C@H](NC(=O)N[C@@H](CCCCNC(=O)[C@H](Cc1ccc2ccccc2c1)NC(=O)C1CCC(CNC(=O)CN2CCN(CC(=O)[O-])CCN(CC(=O)[O-])CCN(CC(=O)[O-])CC2)CC1)C(=O)[O-])C(=O)[O-].[225Ac].[H+].[H+].[H+] (stereo partly shown) [PSMA-617-Ac^225] | 100 | exceeded 100 kBq/kg per cycle | insufficient anti-tumor response | without toxicity |  |  |  |  |  |  |
| O=C([O-])CN1CCN(CC(=O)[O-])CCN(CC(=O)NCC2CCC(C(=O)N[C@@H](Cc3ccc4ccccc4c3)C(=O)NCCCC[C@H](NC(=O)N[C@@H](CCC(=O)O)C(=O)O)C(=O)O)CC2)CCN(CC(=O)[O-])CC1.[177Lu+3] (stereo partly shown) [PSMA-617-^177Lu] |  |  |  |  | 27-30 Gbq | does not cause thrombocytopenia | internalized to a similar degree | internalized to a similar degree | 11.1 | 300 |
